Series [1] has as its target T1, gastric H,K-ATPase (Sus scrofa, UniProt P19156).
T1 construct: Reaction mixtures for assay of K^+-stimulated ATPase activity in pig gastric microsomal membranes contained 5 μg membrane protein; from tissue; host or cells: pig gastric fundic mucosa, G1 microsomal fraction
Briefly: K+-stimulated, SCH28080-sensitive H,K-ATPase activity of pig gastric microsomes (32Pi release from ATP). The series is classed as biochemical. Conditions: for IC50: pig gastric microsomes, pH 7.0, 20 minutes at 37° C., read-out: half-maximal inhibitory concentration (IC50), H,K-ATPase activity; for effect on H,K-ATPase activity: non-physiological concentrations greater than 10^−7 M; for inhibitory activity against H,K-ATPase: physiological concentrations (10^−9-10^−8 M); for inhibitory effect on microsomal H,K-ATPase activity: concentrations up to 10^−4 M. As to the method:
Strategy. Microsomal gastric H,K-ATPase was prepared from pig gastric mucosal homogenates by differential centrifugation. Briefly, pig stomachs obtained at a slaughter-house within 1 hour post mortem were washed with ice-cold 0,25 M sucrose and the fundus was dissected from the cardiac and antral regions. All subsequent prodedures were at 4° C. The mucosa was flooded with saturated NaCl, and the surface mucus and superficial cells wiped off with paper towels. The mucosa was scraped from the underlying connective tissue, suspended (10% w/v) in isolation buffer (0,25 M sucrose, 20 mM HEPES, pH 7,4, 1 mM EDTA, 1 mM phenylmethylsulfonyl fluoride), and disrupted by two 10 second bursts at maximum power in a Tissumizer (Tekmar, Cincinnati, Ohio). The homogenate was centrifuged at 20,000 g for 30 minutes, and the supernatant was centrifuged at 10^5 g for 1 hour. The resulting microsomal pellet was resuspended in isolation buffer, and applied to a discontinuous gradient of 7% w/v Ficoll and 34% sucrose (both in isolation buffer). After 3 hours at 32,500 rpm (Sorvall AH 629 rotor), the microsomal band (G1) recovered from the 7% Ficoll interface was resuspended to 10 mg/ml in 15 mM PIPES-Tris, pH 6,8, diluted 1:1 with cold 60% sucrose, lyophilized in 0,5 ml aliquots, and stored at −70° C. Gl microsomes were about 0,1 microns in diameter, were enriched in H.K.-ATPase activity, and more than 80% of their protein content banded at 94 kDa by SDS-PAGE. ATP hydrolytic activity of microsomes was quantitated in terms of inorganic phosphate release from substrate ATP and measured in graded concentrations (ranging from 10^−9M to 10^−4M) of ML 3000, and a wide range of other compounds. Reaction mixtures for assay of K^+-stimulated ATPase activity in pig gastric microsomal membranes contained 5 μg membrane protein, 100 mM Tris-acetate, pH 7.0, 1 mM MgCl2, 1 mM NaNa, 0,1 mM EGTA, 5 μM ATP (γ-^32P-ATP, 10 Ci/mmol, NEN, Boston, Mass.), 0-10 mM KCl, and 0-100 μM SCH 28080. After 20 minutes incubation at 37° C., reactions were stopped by addition of 10% w/v activated charcoal (Sigma), 5,5% w/v trichloroacetic acid, vortexed vigorously, and centrifuged at 14,000 g for 10 minutes at 4° C. Inorganic phosphate (γ-^32Pi) content of the supernatant was measured by scintillation counting. […] Graphs with standard error bars present inter-assay data variance in three independent assays in each of which ATPase activities in three separate but identical reaction conditions were measured. Graphs without standard error bars represent the mean ATPase activities in three separate but identical reaction conditions in one of at least three independent assays; typical data are shown in these cases.
The wide range of published PPI IC50 values for microsomal H,K-ATPase reflects the mechanistic necessity for compound acidification to allow formation of a thiol-reactive […] intermediate which then irreversibly derivatizes H,K-ATPase a subunit cysteine residues leading to enzyme inhibition. […] Microsomal vesicle preparations vary widely in their ion-tightness, which affects the extent to which internal pH can be lowered by H,K-ATPase turnover, and therefore the extent to which omeprazole diffusing into the vesicle can be acidified and activated. Alternatively, prior in vitro acidification of omeprazole ensures induction of its inhibitory properties, and is essential in assays carried out using ion-permeable microsomal H,K-ATPase preparations. For this reason, the omeprazole inhibitory data shown in FIG. 2 were derived using omeprazole acidified to pH 6.1 and incubated with the enzyme for 30 min at the same pH (8).
Given that PPIs are irreversible inhibitors of H,K-ATPase activity, covalently binding to the catalytic α-subunit, it was determined whether ML 3000 inhibition of H,K-ATPase was reversible or irreversible. […]

The nature of series [2]: Plasma ML3000 level after immediate release dosage forms. The series is classed as in vivo. To be noted: immediate release dosage form.
Series [3] deals with rabbit gastric parietal cells. Briefly: [14C]-aminopyrine (acid) accumulation in isolated gastric parietal cells. Conditions: for IC50: Oryctolagus cuniculus; for effect on acid accumulation by isolated rabbit parietal cells: up to concentrations of 10^−4 M. Format: cell-based. As to the method:
Strategy. Gastric parietal cells were isolated from New Zealand White Rabbits by pronase/collagenase digestion of fundic mucosa followed by enrichment of cells on discontinuous Nycodenz gradients in a manner known per se. Aminopyrine accumulation into parietal cells was assessed in 96 well filter plates with Durapore membranes. […] All determinations were performed in quadruplicate. Basal aminopyrine accumulation was determined as aminopyrine accumulation into […] (a reflection of non-specific isotope trapping).

Series [4] has as its system human gastric adenocarcinoma (AGS) cells. The experiment in a line: IL-8 secretion by AGS cells into culture medium (ELISA). The series is classed as cell-based. To be noted: 6 hr. (In general: In an ELISA, binding on a coated surface is turned into a signal by an enzyme label.)
Series [5] addresses T1, gastric H,K-ATPase. Briefly: K+-stimulated, SCH28080-sensitive H,K-ATPase activity of pig gastric microsomes (32Pi release from ATP). The series is classed as biochemical. To be noted: concentrations up to 10^−3 M.
Series [6] has as its target gastric H,K-ATPase. To be noted: cited from earlier work; for IC50: literature (refs 6, 7), read-out: published IC50, H,K-ATPase.
The mark [7] stands for this setting: AGS cells without IL-1β stimulation, read-out: IC50, baseline IL-8 secretion.

Where two headings read alike, the source gives them in different places. Where only a bound is given, the exact number is not on record here.

T1 sequence (P19156 2-1034 limits assumed): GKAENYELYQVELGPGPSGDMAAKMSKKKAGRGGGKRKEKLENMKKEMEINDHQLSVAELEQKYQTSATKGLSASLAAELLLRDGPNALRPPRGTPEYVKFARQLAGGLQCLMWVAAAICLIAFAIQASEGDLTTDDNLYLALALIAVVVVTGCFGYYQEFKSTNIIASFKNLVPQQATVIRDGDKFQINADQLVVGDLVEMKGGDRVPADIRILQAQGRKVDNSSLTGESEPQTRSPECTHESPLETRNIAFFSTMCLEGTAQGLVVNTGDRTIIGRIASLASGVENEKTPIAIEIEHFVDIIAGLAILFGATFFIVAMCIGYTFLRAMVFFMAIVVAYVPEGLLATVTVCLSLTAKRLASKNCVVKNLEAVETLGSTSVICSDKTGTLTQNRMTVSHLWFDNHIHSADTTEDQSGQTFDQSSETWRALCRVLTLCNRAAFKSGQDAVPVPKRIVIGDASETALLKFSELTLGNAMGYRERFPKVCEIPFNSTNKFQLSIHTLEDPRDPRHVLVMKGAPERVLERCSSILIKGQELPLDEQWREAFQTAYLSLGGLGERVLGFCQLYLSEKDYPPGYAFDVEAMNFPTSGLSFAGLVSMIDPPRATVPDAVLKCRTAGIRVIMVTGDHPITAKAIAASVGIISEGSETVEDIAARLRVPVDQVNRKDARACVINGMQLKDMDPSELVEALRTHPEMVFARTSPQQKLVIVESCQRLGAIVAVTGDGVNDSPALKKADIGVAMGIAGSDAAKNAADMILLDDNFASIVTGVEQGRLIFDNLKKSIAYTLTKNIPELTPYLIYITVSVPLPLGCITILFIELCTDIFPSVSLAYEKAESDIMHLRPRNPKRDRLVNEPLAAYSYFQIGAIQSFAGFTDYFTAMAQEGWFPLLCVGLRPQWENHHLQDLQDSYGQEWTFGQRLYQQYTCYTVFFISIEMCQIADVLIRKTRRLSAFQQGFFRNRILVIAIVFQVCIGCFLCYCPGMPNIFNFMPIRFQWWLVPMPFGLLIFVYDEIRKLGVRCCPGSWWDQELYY
T1 sequence (P18434 whole entry partner): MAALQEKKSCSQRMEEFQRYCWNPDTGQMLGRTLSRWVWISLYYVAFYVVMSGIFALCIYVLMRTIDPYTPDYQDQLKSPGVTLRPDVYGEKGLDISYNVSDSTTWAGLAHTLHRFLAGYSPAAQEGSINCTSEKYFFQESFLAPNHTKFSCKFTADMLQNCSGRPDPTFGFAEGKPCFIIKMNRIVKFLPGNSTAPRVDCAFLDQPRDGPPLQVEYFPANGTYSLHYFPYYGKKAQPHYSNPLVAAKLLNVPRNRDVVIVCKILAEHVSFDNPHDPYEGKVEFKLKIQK

As for `CCCCC/C=C\C/C=C\C/C=C\C/C=C\CCCC(=O)O` [Arachidonic acid], at gastric H,K-ATPase [1], the IC50 was determined as 30 µM.

Consider `CCCCC/C=C\C[C@@H](O)/C=C/C=C/C=C\[C@@H](O)CCCC(=O)O` [LTB4, leukotriene B4], for which, on gastric H,K-ATPase [1], the “effect on H,K-ATPase activity” value is recorded as “significant attentuation of H,K-ATPase activity” and the “inhibitory activity against H,K-ATPase” value is given as “neither leukotriene showed any inhibitory activity”.

Take `CCCCC/C=C\C\C=C/C=C/C=C/[C@@H](SC[C@H](N)C(=O)NCC(=O)O)[C@@H](O)CCCC(=O)O` [LTD4, leukotriene D4]: at gastric H,K-ATPase [1], the “effect on H,K-ATPase activity” value is “significant attentuation of H,K-ATPase activity” and the “inhibitory activity against H,K-ATPase” value is recorded as “neither leukotriene showed any inhibitory activity”.

Turning to `CC1(C)Cc2c(-c3ccccc3)c(-c3ccc(Cl)cc3)c(CC(=O)O)n2C1` [ML 3000, [6-(4-chlorophenyl)-2,2-dimethyl-7-phenyl-2,3-dihydro-1H-pyrrolizine-5-yl]-acetic acid], the “plasma ML3000 concentration maintained for 8 hours” value in series [2] (dose 2.5 mg/kg) is listed as “above 100 ng/mL”; in series [2] (dose 5 mg/kg) it was > 200 ng/mL. For the same compound, the IC50 in series [3] (100 μM histamine, read-out: IC50, histamine-stimulated acid accumulation) is 40 µM; in series [3] (read-out: IC50, forskolin-stimulated acid accumulation), ~45 µM; in series [4] (setting [7]), 0.75 µM; in series [4] (AGS cells, IL-1β (20 ng/ml), read-out: IC50, IL-1β-stimulated IL-8 secretion) it was 30 µM; on gastric H,K-ATPase [1] it was 15 µM. Further, the “reversibility of H,K-ATPase inhibition on dilution” value on gastric H,K-ATPase [1] (diluted from 100 μM to 3.3 μM) is reported as “restored H,K-ATPase activity”. Also, the “effect of acidification on H,K-ATPase inhibitory profile” value on gastric H,K-ATPase [1] (half-maximal inhibitory concentration titrated to different pHs) was “no significant effect”.

Take `CS(=O)(=O)Nc1ccc([N+](=O)[O-])cc1OC1CCCCC1` [NS 398]: the “effect on acid accumulation by isolated rabbit parietal cells” value in series [3] is given as “no effect”. The “inhibitory effect on microsomal H,K-ATPase activity” value (shortened to “inhibitory effect”) at gastric H,K-ATPase [1] was “without inhibitory effects”.

As for `COC1(c2cc(F)cc(OCc3ccc4c(ccc(=O)n4C)c3)c2)CCOCC1` [ZD-2138], the IC50 in series [4] (setting [7]) is ~0.4 µM. Moreover, on gastric H,K-ATPase [1] (at 10^−5 M), the inhibition at 10 µM was ~20%.

Take `CC(=O)Oc1ccccc1C(=O)O` [acetyl salicylic acid]: the “effect on acid accumulation by isolated rabbit parietal cells” value in series [3] is “no effect”. Moreover, the “inhibitory effect” value on gastric H,K-ATPase [5] is “without inhibitory effects”.

As to `COc1ccc2c(c1)c(CC(=O)O)c(C)n2C(=O)c1ccc(Cl)cc1` [indomethacin], the Ki on gastric H,K-ATPase [6] (previously reported (ref 10)) is 670 µM. Further, at gastric H,K-ATPase [1], the “inhibitory effect” value is listed as “without inhibitory effects”.

Regarding `Cc1c(OCC(F)(F)F)ccnc1C[S+]([O-])c1nc2ccccc2[nH]1` (centres unmarked) [lansoprazole], the IC50 on gastric H,K-ATPase [6] is 2.1 µM.

In the case of `COc1ccc2cc([C@H](C)C(=O)O)ccc2c1` [naproxen], the “inhibitory effect” value at gastric H,K-ATPase [1] is recorded as “without inhibitory effects”.

With `COC(=O)c1cc2nc([S+]([O-])Cc3ncccc3C)[nH]c2cc1C` (centres unmarked) [picoprazole], the IC50 on gastric H,K-ATPase [6] was 2 µM.

Take `CCCCC[C@H](O)/C=C/[C@H]1[C@H](O)CC(=O)[C@@H]1C/C=C\CCCC(=O)O` [prostaglandin E2]: at gastric H,K-ATPase [1], the IC50 came out at 45 µM.

In general, inhibition refers to the drop in the measured response relative to a control, in per cent. A low value points to a response near the control. The term Ki denotes the equilibrium dissociation constant of an inhibitor or competing ligand from its target.

(Values after patent publication US20060040945A1, “Annellated pyrrole compounds as proton pump inhibitors for treating ulcer” (MERCKLE GMBH, priority 2002, published 2006).)
